In patent US4613588A, “Benzaldehyde and 4,6-O-benzylidene-D-glucose for alleviating pain” (Kaken Pharmaceutical Co. Ltd., priority 1984, dated 1986):
Read-outs that look alike come from different tables or passages of the source.

Key:
[1] = tested on: carcinomatous pain; test: Carcinomatous pain treating tests (clinical examples); assay type: in vivo, human; conditions: one patient
Experimental: Further, using benzaldehyde and 4,6-O-benzylidene-D-glucose the following carcinomatous pain treating tests were conducted.
After hospitalization, 25 mg benzaldehyde tablets (enteric tablets containing benzaldehyde prepared in the above-described Formulation Example 5) were administered at a dosage of 5 tablets, 4 times a day.
Since variety of chemotherapeutics were not administered because there was a threat of strong side effects, the sole administration of 4,6-O-benzylidene-D-glucose was started in such a way that 1,200 mg of a freeze dried preparation thereof was dissolved in 100 ml of physiological saline and administered i.v. at a rate of once a day (time required being ca. 10 minutes).

[2] = Acute toxicity by subcutaneous injection in rats; conditions: rat, in vivo, sc
Text: Since both benzaldehyde and 4,6-O-benzylidene-D-glucose are substantially non-toxic a wide dosage range may be administered depending on the severity of the pain experienced. The acute toxicity of benzaldehyde and 4,6-O-benzylidene-D-glucose are 5 g/kg or higher and 4 g/kg or higher, respectively, when measured by subcutaneous injection in rats according to conventional toxicity procedures.

[3] = biological target: T1, dipeptidylaminopeptidase (enkephalinase B) (Macaca fascicularis, UniProt A0A7N9C8Y6); test: Enkephalinase B inhibiting effect; assay type: biochemical
T1 construct: releases Tyr-Gly from enkephalin
T1 sequence (A0A7N9C8Y6 1-737): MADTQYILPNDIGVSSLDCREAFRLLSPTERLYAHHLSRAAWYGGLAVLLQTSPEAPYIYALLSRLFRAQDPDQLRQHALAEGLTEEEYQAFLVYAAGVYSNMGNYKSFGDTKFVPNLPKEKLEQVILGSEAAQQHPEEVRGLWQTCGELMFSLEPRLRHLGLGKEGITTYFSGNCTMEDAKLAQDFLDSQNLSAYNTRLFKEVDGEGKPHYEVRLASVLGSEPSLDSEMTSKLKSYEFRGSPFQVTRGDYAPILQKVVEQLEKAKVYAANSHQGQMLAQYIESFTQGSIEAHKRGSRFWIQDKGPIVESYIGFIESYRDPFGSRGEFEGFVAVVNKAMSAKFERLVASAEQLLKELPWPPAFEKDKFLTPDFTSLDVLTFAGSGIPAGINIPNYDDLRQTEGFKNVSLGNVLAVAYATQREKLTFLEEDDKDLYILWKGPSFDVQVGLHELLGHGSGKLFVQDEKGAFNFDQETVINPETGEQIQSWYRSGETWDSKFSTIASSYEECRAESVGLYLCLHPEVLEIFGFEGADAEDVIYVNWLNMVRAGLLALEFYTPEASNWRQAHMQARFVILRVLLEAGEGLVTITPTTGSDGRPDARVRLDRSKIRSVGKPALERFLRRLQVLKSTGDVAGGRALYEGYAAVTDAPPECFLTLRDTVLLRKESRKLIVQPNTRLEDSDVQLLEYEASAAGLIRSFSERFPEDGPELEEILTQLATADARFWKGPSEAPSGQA
Experimental: (§1) The cerebrum of Macaca Fascicularis was chopped using anatomical scissors, 3 volumes that of 25 mM tris-hydrochloric acid buffer (pH 7.7) was added thereto and the mixture homogenized. It was then ultracentrifuged (50,000×g), the supernatant was removed, and the obtained precipitants were treated and washed twice using the same buffer (these precipitates contained enkephalin decomposing enzymes in a form combined to the cell membrane).
(§2) Thereafter, 25 mM tris-hydrochloric acid buffer (pH 7.7) containing 1% of Triton X-100 was added to the precipitates to extract enkephalinase. […]
(§3) The obtained enkephalin decomposing enzymes were analyzed by acrylamide electrophoresis to find that they were single proteins respectively.
(§4) The enzymatic activity of the respective decomposing enzymes obtained above was measured by the qualitative and quantitative analyses of the decomposition products using [^3 H]-enkephalin or enkephalin as a substrate and employing Porapak Q (produced by Water Associates) column method, high-performance liquid chromatography (HPLC), silica gel thin layer autography, etc. […]

[4] = Japanese Patent Application Laid-Open No. 108027/1977 and No. 70428/1979; cited from earlier work
[5] = biological target: T2, dipeptidylcarboxypeptidase (enkephalinase A) (Macaca fascicularis, UniProt G7NZK8); test: Enkephalinase A inhibiting effect; assay type: biochemical; conditions: read-out: enzyme inhibiting effect on enkephalinase A
T2 construct: releases Tyr-Gly-Gly from [3H]Leu-enkephalin
T2 sequence (G7NZK8 2-750): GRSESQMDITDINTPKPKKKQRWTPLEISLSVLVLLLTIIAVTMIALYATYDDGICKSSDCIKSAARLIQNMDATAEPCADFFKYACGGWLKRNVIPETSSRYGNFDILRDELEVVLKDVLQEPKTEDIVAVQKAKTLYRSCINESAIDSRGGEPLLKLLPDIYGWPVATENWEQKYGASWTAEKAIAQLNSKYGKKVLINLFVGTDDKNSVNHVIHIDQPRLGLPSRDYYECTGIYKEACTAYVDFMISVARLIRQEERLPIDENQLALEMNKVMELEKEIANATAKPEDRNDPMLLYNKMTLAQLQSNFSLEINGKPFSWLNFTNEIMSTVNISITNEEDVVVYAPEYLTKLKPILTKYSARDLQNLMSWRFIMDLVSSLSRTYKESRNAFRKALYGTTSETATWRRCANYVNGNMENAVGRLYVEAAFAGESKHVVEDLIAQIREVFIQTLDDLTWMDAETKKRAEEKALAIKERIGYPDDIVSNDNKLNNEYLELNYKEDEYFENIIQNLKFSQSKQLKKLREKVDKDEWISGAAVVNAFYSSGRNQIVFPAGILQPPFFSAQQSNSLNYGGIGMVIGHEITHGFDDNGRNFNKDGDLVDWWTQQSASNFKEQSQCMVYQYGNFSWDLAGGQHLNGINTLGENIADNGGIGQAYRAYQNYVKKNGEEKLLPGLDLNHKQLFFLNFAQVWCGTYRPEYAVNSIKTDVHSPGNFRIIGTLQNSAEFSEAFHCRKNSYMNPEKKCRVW
Experimental: as §1, §2, §3
The enzymatic activity of the respective decomposing enzymes obtained above was measured by the qualitative and quantitative analyses of the decomposition products using [^3 H]-enkephalin or enkephalin as a substrate and employing Porapak Q (produced by Water Associates) column method, high-performance liquid chromatography (HPLC), silica gel thin layer autography, etc.
10 μl of 10 μCi [^3 H] […] Tyr-Gly-Gly was determined using a liquid scintillation counter. […]

[6] = tested on: aminopeptidase; test: Aminopeptidase (enkephalin decomposing enzyme) inhibiting effect; assay type: biochemical, Macaca Fascicularis
Experimental: as §1, §2, §3, §4

[7] = biological target: T3, angiotensin converting enzyme (Macaca fascicularis, UniProt A0A2K5VWQ5); test: Angiotensin converting enzyme inhibiting effect; assay type: biochemical
T3 sequence (A0A2K5VWQ5 31-1307): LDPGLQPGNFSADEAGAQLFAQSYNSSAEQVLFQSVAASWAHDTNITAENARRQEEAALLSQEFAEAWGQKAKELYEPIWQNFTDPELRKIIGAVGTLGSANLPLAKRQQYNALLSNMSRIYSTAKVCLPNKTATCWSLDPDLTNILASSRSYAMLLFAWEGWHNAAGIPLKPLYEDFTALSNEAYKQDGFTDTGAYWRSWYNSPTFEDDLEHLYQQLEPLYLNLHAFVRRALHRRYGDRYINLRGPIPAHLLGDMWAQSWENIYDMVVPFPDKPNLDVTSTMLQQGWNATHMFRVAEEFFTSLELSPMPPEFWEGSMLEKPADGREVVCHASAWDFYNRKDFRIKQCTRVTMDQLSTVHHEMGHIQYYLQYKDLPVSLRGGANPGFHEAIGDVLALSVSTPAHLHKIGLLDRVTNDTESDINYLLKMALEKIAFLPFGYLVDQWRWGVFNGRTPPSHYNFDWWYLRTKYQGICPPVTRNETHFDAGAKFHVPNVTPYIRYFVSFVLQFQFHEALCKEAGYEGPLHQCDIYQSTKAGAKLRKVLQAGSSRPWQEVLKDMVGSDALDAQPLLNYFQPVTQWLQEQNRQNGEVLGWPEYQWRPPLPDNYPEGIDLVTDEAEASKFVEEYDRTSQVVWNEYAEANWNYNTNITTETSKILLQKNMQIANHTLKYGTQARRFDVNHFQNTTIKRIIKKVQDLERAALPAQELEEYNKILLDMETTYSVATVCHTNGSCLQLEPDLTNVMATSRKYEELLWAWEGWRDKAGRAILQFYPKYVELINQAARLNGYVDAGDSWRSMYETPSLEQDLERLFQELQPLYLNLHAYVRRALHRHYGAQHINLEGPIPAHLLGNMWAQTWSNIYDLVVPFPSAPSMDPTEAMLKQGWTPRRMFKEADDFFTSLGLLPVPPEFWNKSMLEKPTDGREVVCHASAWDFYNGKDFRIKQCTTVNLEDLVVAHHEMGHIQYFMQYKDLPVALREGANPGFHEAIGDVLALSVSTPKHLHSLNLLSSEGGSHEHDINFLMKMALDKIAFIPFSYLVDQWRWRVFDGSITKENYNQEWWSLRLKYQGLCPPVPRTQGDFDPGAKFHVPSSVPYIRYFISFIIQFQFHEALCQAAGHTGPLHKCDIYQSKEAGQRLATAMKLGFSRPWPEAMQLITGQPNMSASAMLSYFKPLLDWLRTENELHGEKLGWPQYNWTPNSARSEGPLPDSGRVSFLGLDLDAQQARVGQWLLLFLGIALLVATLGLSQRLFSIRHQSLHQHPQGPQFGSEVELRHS
Experimental: as §1, §2, §3, §4

Row | Compound | pain (subjective symptom) ([1]; mandible cancer relapse, 25 mg enteric tablets (Formulation Example 5), 5 tablets 4 times a day, oral, from 5th day) | carcinoma size by X-ray examination ([1]; mandible cancer relapse, 25 mg enteric tablets, 5 tablets 4 times a day, oral) | pain (subjective symptom) ([1]; mandible cancer relapse, 25 mg enteric tablets, 5 tablets 4 times a day, oral, 7th day) | LD50 ([2]; subcutaneous injection, rats, read-out: acute toxicity) [mg/kg] | enzyme inhibiting effect on enkephalinase B ([3]; 1 mg/ml) | carcinostatic effect [4] | inhibition at 1000 µg/mL [5] [%] | enzyme inhibiting effect on aminopeptidase ([6]; 1 mg/ml) | enzyme inhibiting effect on angiotensin converting enzyme ([7]; 1 mg/ml) | pain ([1]; gastric cancer metastasis to bone, 1,200 mg i.v. once a day, 17th to 18th day) | tumor condition by bone scintillation ([1]; gastric cancer metastasis to bone, 1,200 mg i.v. once a day, 26th day, versus before administration) | mobility ([1]; gastric cancer metastasis to bone, 1,200 mg i.v. once a day, from 10th day) | LD50 [2] [mg/kg] | enzyme inhibiting effect on enkephalinase B ([3]; 1.2 mg/ml) | inhibition at 1200 µg/mL ([5]; 1.2 mg/ml) [%] | enzyme inhibiting effect on aminopeptidase ([6]; 1.2 mg/ml) | enzyme inhibiting effect on angiotensin converting enzyme ([7]; 1.2 mg/ml)
1 | O=Cc1ccccc1 [benzaldehyde] | the pain was eased | did not reduce in size | almost no pain | ≥ 5000 | did not exhibit an enzyme inhibiting effect | known to have carcinostatic effect | 99 | did not exhibit an enzyme inhibiting effect | did not exhibit an enzyme inhibiting effect | – | – | – | – | – | – | – | –
2 | OC1O[C@@H]2COC(c3ccccc3)O[C@H]2[C@H](O)[C@H]1O (stereo partly drawn) [4,6-O-benzylidene-D-glucose] | – | – | – | – | – | known to have carcinostatic effect | – | – | – | the pain almost disappeared | the tumor condition was the same | became able to sit on bed | ≥ 4000 | did not exhibit an enzyme inhibiting effect | 81 | did not exhibit an enzyme inhibiting effect | did not exhibit an enzyme inhibiting effect
